Results reported in ChEMBL document CHEMBL1132752, “Structure-activity relationships of trans-3,5-disubstituted pyrrolidinylthio-1beta-methylcarbapenems. Part 2: J-111,225, J-114,870, J-114,871 and related compounds” (2000).
In brackets after ≈: the same amount, converted by molar mass.

Tests used:
Format in all cases: functional
[1] = tested on: Staphylococcus epidermidis; assay: In vitro antimicrobial activity against methicillin resistant Staphylococcus epidermidis MB5181
Rattus norvegicus = assay: Epileptogenicity at 200 ug in rat intracerebroventricular assay.
Sus scrofa = species on record: Sus scrofa; assay: Porcine renal DHP-1 susceptibility.
Staphylococcus aureus [2] = assay: In vitro antimicrobial activity against Staphylococcus aureus 209P NIHJ JCI
Staphylococcus aureus [3] = assay: In vitro antimicrobial activity against methicillin resistant Staphylococcus aureus pMS520
Pseudomonas aeruginosa [4] = assay: In vitro antimicrobial activity against ceftazidime resistant Pseudomonas aeruginosa AKR 17
Escherichia coli = assay: In vitro antimicrobial activity against Escherichia coli NIHJ JC2
Pseudomonas aeruginosa [5] = assay: In vitro antimicrobial activity against Pseudomonas aeruginosa AK 109

SMILES | MIC [1] | Epileptogenicity (Rattus norvegicus) | Susceptibility (Sus scrofa) | MIC (Staphylococcus aureus [2]) | MIC (Staphylococcus aureus [3]) | MIC (Pseudomonas aeruginosa [4]) | MIC (Escherichia coli) | MIC (Pseudomonas aeruginosa [5])
CNCc1ccc([C@H]2C[C@H](SC3=C(C(=O)O)N4C(=O)[C@H]([C@@H](C)O)[C@H]4[C@H]3C)CN2)cc1 | 1.56 µg/mL (≈ 3.61 µM) | 0 | 0.25 | < 0.006 µg/mL | 0.78 µg/mL (≈ 1.81 µM) | 1.56 µg/mL (≈ 3.61 µM) | 0.025 µg/mL (≈ 0.0579 µM) | 0.39 µg/mL (≈ 0.904 µM)
C[C@@H](O)[C@H]1C(=O)N2C(C(=O)O)=C(S[C@@H]3CN[C@@H](c4ccc(C5(N)CC5)cc4)C3)[C@H](C)[C@H]12 | 1.56 µg/mL (≈ 3.52 µM) | 0 | 0.32 | < 0.006 µg/mL | 1.56 µg/mL (≈ 3.52 µM) | 6.25 µg/mL (≈ 14.1 µM) | 0.025 µg/mL (≈ 0.0564 µM) | 3.13 µg/mL (≈ 7.06 µM)
C[C@@H](O)[C@H]1C(=O)N2C(C(=O)O)=C(S[C@@H]3CN[C@@H](c4ccc(C(N)C(N)=O)cc4)C3)[C@H](C)[C@H]12 (stereo partly drawn) | 3.13 µg/mL (≈ 6.8 µM) | 0 | 0.32 | < 0.006 µg/mL | 3.13 µg/mL (≈ 6.8 µM) | 6.25 µg/mL (≈ 13.6 µM) | 0.025 µg/mL (≈ 0.0543 µM) | 1.56 µg/mL (≈ 3.39 µM)
C[C@@H](O)[C@H]1C(=O)N2C(C(=O)O)=C(S[C@@H]3CN[C@@H](c4ccc(CNCCO)cc4)C3)[C@H](C)[C@H]12 | 1.56 µg/mL (≈ 3.38 µM) |  | 0.31 | < 0.006 µg/mL | 1.56 µg/mL (≈ 3.38 µM) | 6.25 µg/mL (≈ 13.5 µM) | 0.05 µg/mL (≈ 0.108 µM) | 0.78 µg/mL (≈ 1.69 µM)
C[C@@H](O)[C@H]1C(=O)N2C(C(=O)O)=C(S[C@@H]3CN[C@@H](c4ccc(CN=C(N)N)cc4)C3)[C@H](C)[C@H]12 | 0.78 µg/mL (≈ 1.7 µM) |  |  | < 0.006 µg/mL | 1.56 µg/mL (≈ 3.39 µM) | 3.13 µg/mL (≈ 6.81 µM) | 0.012 µg/mL (≈ 0.0261 µM) | 0.78 µg/mL (≈ 1.7 µM)
CNCc1ccc([C@H]2C[C@H](SC3=C(C(=O)O)N4C(=O)[C@H]([C@@H](C)O)[C@H]4[C@H]3C)CN2)s1 | 3.13 µg/mL (≈ 7.15 µM) | 3 | 0.35 | < 0.006 µg/mL | 1.56 µg/mL (≈ 3.57 µM) | 3.13 µg/mL (≈ 7.15 µM) | 0.025 µg/mL (≈ 0.0571 µM) | 1.56 µg/mL (≈ 3.57 µM)
C[C@@H](O)[C@H]1C(=O)N2C(C(=O)O)=C(S[C@@H]3CN[C@@H](c4ccc([C@@H](N)CC(N)=O)cc4)C3)[C@H](C)[C@H]12 | 1.56 µg/mL (≈ 3.29 µM) | 0 | 0.27 | < 0.006 µg/mL | 1.56 µg/mL (≈ 3.29 µM) | 1.56 µg/mL (≈ 3.29 µM) | 0.025 µg/mL (≈ 0.0527 µM) | 0.78 µg/mL (≈ 1.64 µM)
C[C@@H](O)[C@H]1C(=O)N2C(C(=O)O)=C(S[C@@H]3CN[C@@H](c4ccc(CSC(=N)N)cc4)C3)[C@H](C)[C@H]12 | 1.56 µg/mL (≈ 3.27 µM) | 3 | 0.3 | < 0.006 µg/mL | 1.56 µg/mL (≈ 3.27 µM) | 12.5 µg/mL (≈ 26.2 µM) | 0.05 µg/mL (≈ 0.105 µM) | 1.56 µg/mL (≈ 3.27 µM)
CC(N)c1ccc([C@H]2C[C@H](SC3=C(C(=O)O)N4C(=O)[C@H]([C@@H](C)O)[C@H]4[C@H]3C)CN2)cc1 (stereo partly drawn) | 0.78 µg/mL (≈ 1.81 µM) | 0 | 0.55 | < 0.006 µg/mL | 1.56 µg/mL (≈ 3.61 µM) | 3.13 µg/mL (≈ 7.25 µM) | 0.025 µg/mL (≈ 0.0579 µM) | 0.78 µg/mL (≈ 1.81 µM)
C/C(N)=N/Cc1ccc([C@H]2C[C@H](SC3=C(C(=O)O)N4C(=O)[C@H]([C@@H](C)O)[C@H]4[C@H]3C)CN2)cc1 | 0.78 µg/mL (≈ 1.7 µM) |  | 0.25 | < 0.006 µg/mL | 1.56 µg/mL (≈ 3.4 µM) | 6.25 µg/mL (≈ 13.6 µM) | 0.05 µg/mL (≈ 0.109 µM) | 1.56 µg/mL (≈ 3.4 µM)
CNCc1ccc([C@H]2C[C@H](SC3=C(C(=O)O)N4C(=O)[C@H]([C@@H](C)O)[C@H]4[C@H]3C)CN2)o1 | 1.56 µg/mL (≈ 3.7 µM) |  | 0.1 | < 0.006 µg/mL | 3.13 µg/mL (≈ 7.43 µM) | 12.5 µg/mL (≈ 29.7 µM) | 0.025 µg/mL (≈ 0.0593 µM) | 1.56 µg/mL (≈ 3.7 µM)
C[C@@H](O)[C@H]1C(=O)N2C(C(=O)O)=C(S[C@@H]3CN[C@@H](c4ccc(CN)c5ccccc45)C3)[C@H](C)[C@H]12 | 0.78 µg/mL (≈ 1.67 µM) | 5 | 0.16 | < 0.006 µg/mL | 1.56 µg/mL (≈ 3.34 µM) | > 25 µg/mL | 0.05 µg/mL (≈ 0.107 µM) | 6.25 µg/mL (≈ 13.4 µM)
C[C@@H](O)[C@H]1C(=O)N2C(C(=O)O)=C(SCCNC=N)C[C@H]12.O | 50 µg/mL | 5 | 1 | < 0.006 µg/mL | 50 µg/mL | 3.13 µg/mL | 0.1 µg/mL | 1.56 µg/mL
C[C@@H](O)[C@H]1C(=O)N2C(C(=O)O)=C(S[C@@H]3CN[C@@H](c4ccc(CNCC(N)=O)cc4)C3)[C@H](C)[C@H]12 | 1.56 µg/mL (≈ 3.29 µM) |  | 0.31 | < 0.006 µg/mL | 3.13 µg/mL (≈ 6.6 µM) | 6.25 µg/mL (≈ 13.2 µM) | 0.025 µg/mL (≈ 0.0527 µM) | 1.56 µg/mL (≈ 3.29 µM)
C[C@@H](O)[C@H]1C(=O)N2C(C(=O)O)=C(S[C@@H]3CN[C@@H](c4ccc(C(N)CCO)cc4)C3)[C@H](C)[C@H]12 (stereo partly drawn) | 6.25 µg/mL (≈ 13.5 µM) | 0 |  | < 0.006 µg/mL | 3.13 µg/mL (≈ 6.78 µM) | 12.5 µg/mL (≈ 27.1 µM) | 0.05 µg/mL (≈ 0.108 µM) | 1.56 µg/mL (≈ 3.38 µM)
CCNCc1ccc([C@H]2C[C@H](SC3=C(C(=O)O)N4C(=O)[C@H]([C@@H](C)O)[C@H]4[C@H]3C)CN2)cc1 | 1.56 µg/mL (≈ 3.5 µM) | 0 | 0.44 | < 0.006 µg/mL | 1.56 µg/mL (≈ 3.5 µM) | 6.25 µg/mL (≈ 14 µM) | 0.025 µg/mL (≈ 0.0561 µM) | 1.56 µg/mL (≈ 3.5 µM)
CCC(N)c1ccc([C@H]2C[C@H](SC3=C(C(=O)O)N4C(=O)[C@H]([C@@H](C)O)[C@H]4[C@H]3C)CN2)cc1 (stereo partly drawn) | 1.56 µg/mL (≈ 3.5 µM) | 0 | 0.2 | < 0.006 µg/mL | 1.56 µg/mL (≈ 3.5 µM) | 25 µg/mL (≈ 56.1 µM) | 0.1 µg/mL (≈ 0.224 µM) | 3.13 µg/mL (≈ 7.02 µM)
C[C@@H](O)[C@H]1C(=O)N2C(C(=O)O)=C(S[C@@H]3CN[C@@H](c4cccc(CN)c4)C3)[C@H](C)[C@H]12 | 3.13 µg/mL (≈ 7.5 µM) | 5 | 0.16 | < 0.006 µg/mL | 1.56 µg/mL (≈ 3.74 µM) | 6.25 µg/mL (≈ 15 µM) | 0.1 µg/mL (≈ 0.24 µM) | 0.78 µg/mL (≈ 1.87 µM)
C=CCC(N)c1ccc([C@H]2C[C@H](SC3=C(C(=O)O)N4C(=O)[C@H]([C@@H](C)O)[C@H]4[C@H]3C)CN2)cc1 (stereo partly drawn) | 3.13 µg/mL (≈ 6.84 µM) | 0 | 0.29 | < 0.006 µg/mL | 1.56 µg/mL (≈ 3.41 µM) | 12.5 µg/mL (≈ 27.3 µM) | 0.025 µg/mL (≈ 0.0546 µM) | 1.56 µg/mL (≈ 3.41 µM)
CC(C)NCc1ccc([C@H]2C[C@H](SC3=C(C(=O)O)N4C(=O)[C@H]([C@@H](C)O)[C@H]4[C@H]3C)CN2)cc1 | 1.56 µg/mL (≈ 3.39 µM) |  |  | < 0.006 µg/mL | 1.56 µg/mL (≈ 3.39 µM) | 6.25 µg/mL (≈ 13.6 µM) | 0.05 µg/mL (≈ 0.109 µM) | 0.78 µg/mL (≈ 1.7 µM)
CN[C@H](CC(C)C)C(=O)N[C@H]1C(=O)N[C@@H](CC(N)=O)C(=O)N[C@H]2C(=O)N[C@H]3C(=O)N[C@H](C(=O)N[C@H](C(=O)O)c4cc(O)cc(O)c4-c4cc3ccc4O)[C@H](O)c3ccc(c(Cl)c3)Oc3cc2cc(c3O[C@@H]2O[C@H](CO)[C@@H](O)[C@H](O)[C@H]2O[C@H]2C[C@](C)(N)[C@H](O)[C@H](C)O2)Oc2ccc(cc2Cl)[C@H]1O [VANCOMYCIN] |  |  |  | 0.39 µg/mL (≈ 0.269 µM) | 0.78 µg/mL (≈ 0.538 µM) | > 100 µg/mL | > 100 µg/mL | > 100 µg/mL
CCSCC(N)c1ccc([C@H]2C[C@H](SC3=C(C(=O)O)N4C(=O)[C@H]([C@@H](C)O)[C@H]4[C@H]3C)CN2)cc1 (stereo partly drawn) | 0.78 µg/mL (≈ 1.59 µM) |  | 0.27 | < 0.006 µg/mL | 1.56 µg/mL (≈ 3.17 µM) | 12.5 µg/mL (≈ 25.4 µM) | 0.025 µg/mL (≈ 0.0508 µM) | 3.13 µg/mL (≈ 6.37 µM)
